Measured values: patent publication US8008329B2 (Dong Wha Pharmaceutical Co., Ltd., priority 2008, dated 2011)
Marks after values point to notes of the source that are not given here.

Tested on: osteoclast differentiation
Experiment: Osteoclast differentiation in co-culture of mouse bone marrow cells and ST2 cells, TRAP staining (Examples 8-9)
Format: cell-based
Conditions: for % number of osteoclast (vs. solvent control group): 0.1 μM each, day 7; for activity at 0.1 µM: Mus musculus, Osteoclast, 168 h, Individual treatment (compounds), day 7, read-out: % number of osteoclast (vs. solvent control group)
Protocol: The differentiation of osteoclast from mouse bone marrow cells was induced by using co-culture system, and inhibitory effect of the drug on osteoclast differentiation was evaluated by treatment of single or combination formulation. Co-culture was performed using mouse bone marrow cells and ST cells of bone marrow-derived stromal cell.
Femora and tibia were aseptically ectomized from 6˜8 week-old male ddY mice to harvest bone marrow cells by a general method using a syringe. The red blood cells were removed from the bone marrow cells, followed by centrifugation. The bone marrow cells were suspended in α-MEM medium supplemented with 10% fetal bovine serum, and the numbers of the eukaryotic cells in the harvested bone marrow cells were counted and then immediately used for a co-culture system.
ST2 cells (RIKEN Cell Bank, Tsukuba, Japan) were cultured in α-MEM medium supplemented with 10% fetal bovine serum until confluent. Then, these cells were diluted to a desired cell number, and used for the experiment.
The bone marrow cells (1×10^5 cells/well) and ST2 cells (3,000 cells/well) prepared in the above were plated in a 96-well plate using α-MEM medium supplemented with 10% fetal bovine serum. At this time, differentiation factors, 1α,25-dihydroxyvitamin D3 (10^−8 M, hereinbelow, referred to as vitamin D3) and dexamethasone (10^−8 M), were co-added to the medium to induce osteoclast differentiation. The medium was replaced with fresh media containing the differentiation factors every 2 to 3 days.
After 7 days, when multinucleated osteoclasts were observed, the medium was removed from the wells, and then the cells were fixed with PBS containing 10% Formalin. Tartrate-Resistant Acid Phosphatase (hereinbelow, referred to as TRAP) was used as a marker to measure the mature osteoclast in consideration of its characteristics showing a positive reaction to a TRAP staining solution. The TRAP staining solution was prepared in such the manner that a substrate, naphtol AS-MS phosphate and a coloring agent (Fast Red Violet LB salt) were dissolved in N,N-dimethylformamide. A 0.1 N NaHCO3 buffer solution containing 50 mM tartaric acid was added thereto, and the mixture was stored at a refrigerator prior to use as a staining solution. The osteoclasts with 6-7 or more nuclei showing a TRAP-positive reaction were counted under a microscope.
Alendronic acid was dissolved in distilled water at a concentration of 0.1 mM, and benzamidine derivatives were dissolved in DMSO at a concentration of 0.1 mM. All of them were diluted 1,000 fold with the differentiation media to a final concentration of 0.1 μM, respectively. In this connection, a control group was maintained in 0.1% DMSO.
As the above described, the sample substances and cells, which were diluted to the desired concentrations, were plated in 96-well plate, and co-cultured. On days 3 and 5 of culture, the media were replaced with fresh differentiation media containing the sample substances. On day 7 of culture, TRAP staining was performed to count the mature multinucleated osteoclast that was formed by differentiation. The mature osteoclasts with 6 or more nuclei were counted under a microscope. The results were expressed as a percentage (%) of the number of mature osteoclast observed in each experimental group, when the number of mature osteoclast in the control group (solvent only) was regarded as 100%. The experiment was performed with 4 wells per experimental group (n=4), and the results were expressed as mean value±standard deviation. In addition, the experiment was repeated at least two times, and Student t-test was applied for significant difference between experimental groups.
The experiment was performed in the same manner as in Example 8 to evaluate the effect of individual or combination treatment of risedronic acid and benzamidine derivatives of Formula 1 on osteoclast differentiation, except using 0.1 μM risedronic acid instead of 0.1 μM alendronic acid. […]

[1] = Combination treatment (alendronic acid + compounds)
[2] = Combination treatment (risedronic acid + compounds)

C=Cc1sc(C)nc1-c1ccc(OCCCCCOc2ccc(C(=N)NO)cc2)cc1 [Compound 74, N-hydroxy-4-{5-[4-(5-vinyl-2-methyl-1,3-thiazole-4-yl)phenoxy]pentyloxy}-benzamidine]
% number of osteoclast (vs. solvent control group) [1]: 36 ± 4.3^ab %
% number of osteoclast (vs. solvent control group) [2]: 28 ± 5.4^ac %
activity at 0.1 µM: 60 ± 0.7%

COCc1sc(C)nc1-c1ccc(OCCCCCOc2ccc(C(=N)NO)cc2)cc1 [Compound 76, N-hydroxy-4-{5-[4-(5-methoxymethyl-2-methyl-1,3-thiazol-4-yl)phenoxy]pentyloxy}-benzamidine]
% number of osteoclast (vs. solvent control group) [1]: 31 ± 6.8^ab %
% number of osteoclast (vs. solvent control group) [2]: 22 ± 3.8^a %
activity at 0.1 µM: 53 ± 6.5%

C=Cc1sc(N)nc1-c1ccc(OCCCCCOc2ccc(C(=N)NO)cc2)cc1 [Compound 78, N-hydroxy-4-{5-[4-(5-vinyl-2-amino-1,3-thiazol-4-yl)phenoxy]pentyloxy}-benzamidine]
% number of osteoclast (vs. solvent control group) [1]: 36 ± 4.2^ab %
% number of osteoclast (vs. solvent control group) [2]: 20 ± 1.7^a %
activity at 0.1 µM: 67 ± 2.1%

C=Cc1sc(-c2cccnc2)nc1-c1ccc(OCCCCCOc2ccc(C(=N)NO)cc2)cc1 [Compound 79, N-hydroxy-4-{5-[4-(5-vinyl-2-(pyridin-3-yl)-1,3-thiazol-4-yl)phenoxy]pentyloxy}-benzamidine]
% number of osteoclast (vs. solvent control group) [1]: 22 ± 6.7^ab %
% number of osteoclast (vs. solvent control group) [2]: 16 ± 4.0^ac %
activity at 0.1 µM: 44 ± 7.5%

N=C(NO)c1ccc(OCCCCCOc2ccc(-c3nc(-c4cccnc4)sc3CCCl)cc2)cc1 [Compound 80, N-hydroxy-4-{5-[4-(5-(2-chloroethyl)-2-(pyridin-3-yl)-1,3-thiazol-4-yl)phenoxy]pentyloxy}-benzamidine]
% number of osteoclast (vs. solvent control group) [1]: 42 ± 9.9^b %
% number of osteoclast (vs. solvent control group) [2]: 38 ± 3.7^ac %
activity at 0.1 µM: 65 ± 1.4%

CCNc1nc(-c2ccc(OCCCCCOc3ccc(C(=N)NO)cc3)cc2)cs1 [Compound 84, N-hydroxy-4-{5-[4-(2-ethylamino-1,3-thiazol-4-yl)phenoxy]pentyloxy}-benzamidine]
% number of osteoclast (vs. solvent control group) [1]: 30 ± 5.1^ab %
% number of osteoclast (vs. solvent control group) [2]: 6 ± 4.4^ac %
activity at 0.1 µM: 44 ± 4.3%

CCCNc1nc(-c2ccc(OCCCCCOc3ccc(C(=N)NO)cc3)cc2)c(C)s1 [Compound 88, N-hydroxy-4-{5-[4-(5-methyl-2-propylamino-1,3-thiazol-4-yl)phenoxy]pentyloxy}-benzamidine]
% number of osteoclast (vs. solvent control group) [1]: 61 ± 11.7%
% number of osteoclast (vs. solvent control group) [2]: 29 ± 4.7^ac %
activity at 0.1 µM: 63 ± 7.6%

N=C(NO)c1ccc(OCCCCCOc2ccc(-c3nc(NC(=O)c4cccnc4)sc3CC3CCCC3)cc2)cc1 [Compound 89, N-hydroxy-4-{5-[4-(5-cyclopentylmethyl-2-(3-pyridylcarbonyl)amino-1,3-thiazol-4-yl)phenoxy]pentyloxy}-benzamidine]
% number of osteoclast (vs. solvent control group) [1]: 38 ± 1.9^ab %
% number of osteoclast (vs. solvent control group) [2]: 39 ± 2.7^ac %
activity at 0.1 µM: 58 ± 5.1%

Cc1sc(NC(=O)CO)nc1-c1ccc(OCCCCCOc2ccc(C(=N)NO)cc2)cc1 [Compound 90, N-hydroxy-4-{5-[4-(2-hydroxyacetylamino-5-methyl-1,3-thiazol-4-yl)phenoxy]pentyloxy}-benzamidine]
% number of osteoclast (vs. solvent control group) [1]: 54 ± 8.6^ab %
% number of osteoclast (vs. solvent control group) [2]: 39 ± 8.4^ac %
activity at 0.1 µM: 87 ± 10%

Cc1sc(NC(=O)c2ccncc2)nc1-c1ccc(OCCCCCOc2ccc(C(=N)NO)cc2)cc1 [Compound 91, N-hydroxy-4-{5-[4-(5-methyl-2-(4-pyridylcarbonyl)amino-1,3-thiazol-4-yl)phenoxy]pentyloxy}-benzamidine]
% number of osteoclast (vs. solvent control group) [1]: 35 ± 2.7^ab %
% number of osteoclast (vs. solvent control group) [2]: 32 ± 7.0^ac %
activity at 0.1 µM: 60 ± 8.8%

COCCNc1nc(-c2ccc(OCCCCCOc3ccc(C(=N)NO)cc3)cc2)c(C)s1 [Compound 94, N-hydroxy-4-{5-[4-(2-(2-methoxyethyl)amino-5-methyl-1,3-thiazol-4-yl)phenoxy]pentyloxy}-benzamidine]
% number of osteoclast (vs. solvent control group) [1]: 20 ± 4.8^ab %
% number of osteoclast (vs. solvent control group) [2]: 16 ± 3.3^ac %
activity at 0.1 µM: 45 ± 3%

CCc1sc(NS(=O)(=O)CC)nc1-c1ccc(OCCCCCOc2ccc(C(=N)NO)cc2)cc1 [Compound 95, N-hydroxy-4-{5-[4-(2-ethanesulphonylamino-5-ethyl-1,3-thiazol-4-yl)phenoxy]pentyloxy}-benzamidine]
% number of osteoclast (vs. solvent control group) [1]: 37 ± 10.3^ab %
% number of osteoclast (vs. solvent control group) [2]: 33 ± 6.8^ac %
activity at 0.1 µM: 90 ± 5.4%

CCc1sc(NC)nc1-c1ccc(OCCCCCOc2ccc(C(=N)NO)cc2)cc1 [Compound 96, N-hydroxy-4-{5-[4-(5-ethyl-2-methylamino-1,3-thiazol-4-yl)phenoxy]pentyloxy}-benzamidine]
% number of osteoclast (vs. solvent control group) [1]: 55 ± 10.0%
% number of osteoclast (vs. solvent control group) [2]: 34 ± 7.1^ac %
activity at 0.1 µM: 74 ± 8.1%

CCNc1nc(-c2ccc(OCCCCCOc3ccc(C(=N)NO)cc3)cc2)c(CC)s1 [Compound 97, N-hydroxy-4-{5-[4-(5-ethyl-2-ethylamino-1,3-thiazol-4-yl)phenoxy]pentyloxy}-benzamidine]
% number of osteoclast (vs. solvent control group) [1]: 30 ± 5.7^ab %
% number of osteoclast (vs. solvent control group) [2]: 13 ± 4.3^ac %
activity at 0.1 µM: 57 ± 5.2%

CCCNc1nc(-c2ccc(OCCCCCOc3ccc(C(=N)NO)cc3)cc2)c(CC)s1 [Compound 98, N-hydroxy-4-{5-[4-(5-ethyl-2-propylamino-1,3-thiazol-4-yl)phenoxy]pentyloxy}-benzamidine]
% number of osteoclast (vs. solvent control group) [1]: 29 ± 1.6^ab %
% number of osteoclast (vs. solvent control group) [2]: 11 ± 3.2^ac %
activity at 0.1 µM: 47 ± 3.2%

CCc1sc(NC(=O)c2ccncc2)nc1-c1ccc(OCCCCCOc2ccc(C(=N)NO)cc2)cc1 [Compound 100, N-hydroxy-4-{5-[4-(5-ethyl-2-(4-pyridylcarbonyl)amino-1,3-thiazol-4-yl)phenoxy]pentyloxy}-benzamidine]
% number of osteoclast (vs. solvent control group) [1]: 14 ± 6.9^ab %
% number of osteoclast (vs. solvent control group) [2]: 12 ± 3.0^ac %
activity at 0.1 µM: 46 ± 8.4%

CCc1sc(NC(=O)c2cccnc2)nc1-c1ccc(OCCCCCOc2ccc(C(=N)NO)cc2)cc1 [Compound 101, N-hydroxy-4-{5-[4-(5-ethyl-2-(3-pyridylcarbonyl)amino-1,3-thiazol-4-yl)phenoxy]pentyloxy}-benzamidine]
% number of osteoclast (vs. solvent control group) [1]: 24 ± 3.2^ab %
% number of osteoclast (vs. solvent control group) [2]: 18 ± 2.8^ac %
activity at 0.1 µM: 50 ± 5.9%

CCc1sc(NCCOC)nc1-c1ccc(OCCCCCOc2ccc(C(=N)NO)cc2)cc1 [Compound 102, N-hydroxy-4-{5-[4-(5-ethyl-2-(2-methoxyethyl)amino-1,3-thiazol-4-yl)phenoxy]pentyloxy}-benzamidine]
% number of osteoclast (vs. solvent control group) [1]: 37 ± 3.6^b %
% number of osteoclast (vs. solvent control group) [2]: 21 ± 2.6^ac %
activity at 0.1 µM: 47 ± 4%

CCCCc1sc(NC)nc1-c1ccc(OCCCCCOc2ccc(C(=N)NO)cc2)cc1 [Compound 105, N-hydroxy-4-{5-[4-(5-butyl-2-methylamino-1,3-thiazol-4-yl)phenoxy]pentyloxy}-benzamidine]
% number of osteoclast (vs. solvent control group) [1]: 42 ± 3.0^b %
% number of osteoclast (vs. solvent control group) [2]: 41 ± 8.8^ac %
activity at 0.1 µM: 87 ± 11%

CNc1nc(-c2ccc(OCCCCCOc3ccc(C(=N)NO)cc3)cc2)c(CC2CCCC2)s1 [Compound 109, N-hydroxy-4-{5-[4-(5-cyclopentylmethyl-2-methylamino-1,3-thiazol-4-yl)phenoxy]pentyloxy}-benzamidine]
% number of osteoclast (vs. solvent control group) [1]: 49 ± 9.8^b %
% number of osteoclast (vs. solvent control group) [2]: 30 ± 6.5^ac %
activity at 0.1 µM: 60 ± 9.6%
